Experimental data taken from PMC4891693, “Discovery of prenylated flavonoids with dual activity against influenza virus and Streptococcus pneumoniae” (Scientific Reports, 2016).
Values after ≈ are worked out from the molar mass of the structure shown. Values joined by “and” are separate entries in the source; they are usually repeats but may differ in a detail not shown here. Equal values may be shown once. Read-outs that look alike come from different tables or passages of the source.

What was measured:
human erythrocytes [1] = test: Interference with hemagglutination in the viral HA assay
human erythrocytes [2] = test system: human erythrocytes
human erythrocytes [3] = test system: human erythrocytes; remark: listed apart in the source
in vitro [4] = details: human
[5] = molecular target: influenza virus A/WSN/33 NA (Influenza A virus, UniProt P03470); test: biochemical
in vitro [6] = details: dog
[7] = test system: NA of S. pneumoniae DSM20566 (precipitated bacterial proteins); test: Hemagglutination (HA)-based NA inhibition assay, bacterial; type: biochemical, Streptococcus pneumoniae; details: pure compounds; total protein of DSM20566; human erythrocytes; highest tested 100 μM
Description: Inhibition of pneumococcal NAs circumvents hemagglutination.

Chain of influenza virus A/WSN/33 NA (P03470 whole entry, looked up): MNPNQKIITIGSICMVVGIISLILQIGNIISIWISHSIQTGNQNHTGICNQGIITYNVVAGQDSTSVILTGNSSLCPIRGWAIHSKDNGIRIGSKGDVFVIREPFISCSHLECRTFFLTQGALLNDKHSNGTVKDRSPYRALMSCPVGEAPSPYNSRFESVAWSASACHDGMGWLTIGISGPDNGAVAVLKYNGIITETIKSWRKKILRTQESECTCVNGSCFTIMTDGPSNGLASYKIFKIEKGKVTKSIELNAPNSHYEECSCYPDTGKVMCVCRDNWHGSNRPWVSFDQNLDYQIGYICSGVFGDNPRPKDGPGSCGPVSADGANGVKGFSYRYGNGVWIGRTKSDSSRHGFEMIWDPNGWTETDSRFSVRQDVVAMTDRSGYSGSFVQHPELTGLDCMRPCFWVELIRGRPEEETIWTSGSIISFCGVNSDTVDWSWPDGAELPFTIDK

Compound | sample concentrations provoking prevention of virus-induced hemagglutination in viral HA assay (human erythrocytes [1]) | sample concentrations provoking induction of erythrocyte lysis in viral HA assay (human erythrocytes [2]; human) | sample concentrations provoking induction of erythrocyte lysis in bacterial HA assay (human erythrocytes [3]; human) | CC50 at 72 h (in vitro [4]) [µM] | IC50 [5] [µM] | CC50 at 72 h (in vitro [6]) [µM] | MIC in HA assay against S. pneumoniae DSM20566 [7] | sample concentrations provoking induction of erythrocyte lysis in viral HA assay (human erythrocytes [2]) | sample concentrations provoking induction of erythrocyte lysis in bacterial HA assay (human erythrocytes [3]) | CC50 (in vitro [4]) [µM] | CC50 (in vitro [6]) [µM]
CC(C)=CCc1cc(C2CC(=O)c3c(O)cc(O)cc3O2)ccc1O (stereo not shown) [Compound 20, 4',5,7-trihydroxy-3'-prenylflavanone] | no | 100 or no | 100 or no | > 100 | > 100 | 67.9 ± 2.62 |  |  |  |  | 
COc1cc(C2CC(=O)c3c(O)cc(O)cc3O2)cc(CC=C(C)C)c1O (stereo not shown) [Compound 21, 2,3-dihydro-5,7-dihydroxy-2-[4-hydroxy-3-methoxy-5-(3-methyl-2-butenyl)phenyl]-4H-1-benzopyran-4-one] | no |  |  | > 100 | 45.5 ± 6.06 | 64.9 ± 1.28 | 65.8 ± 37.5 µM (≈ 24.4 µg/mL) | no | no |  | 
CC(C)=CCC/C(C)=C/Cc1c(O)cc2c(c1O)C(=O)[C@H](O)[C@@H](c1ccc(O)cc1)O2 [Compound 26, bonanniol A] | no | 31.6 to 100 µM | 100 µM | 63.2 ± 25.9 | 63.9 ± 11.1 | 42.2 ± 22.6 | 10.0 ± 0.00 µM (≈ 4.24 µg/mL) |  |  |  | 
COc1ccc(C2CC(=O)c3c(cc(O)c(CC=C(C)C)c3O)O2)cc1 (stereo not shown) [Compound 19] | no |  | 31.6 to 100 µM | > 100 | > 100 | 50.5 ± 6.32 |  | no |  |  | 
CC(C)=CCc1c(O)c(CC=C(C)C)c2occ(-c3ccc(O)c(O)c3)c(=O)c2c1O [Compound 31, 6,8-diprenylorobol] | no | 31.6 to 100 µM | 100 µM | 47.1 ± 2.83 | 37.9 ± 14.6 | 20 ± 1.53 |  |  |  |  | 
CC(C)=CCc1c(O)c(CC=C(C)C)c2c(c1O)C(=O)C[C@@H](c1ccc(O)cc1)O2 [Compound 28, 6,8-diprenylnaringenin] | no |  | 100 µM | 59.1 ± 19.8 | > 100 | 15.8 ± 7.58 | 15.4 ± 10.8 µM (≈ 6.29 µg/mL) | no |  |  | 
CC(C)=CCc1c(O)c(CC=C(C)C)c2c(c1O)C(=O)C(c1ccc(O)cc1O)CO2 (stereo not shown) [Compound 32, orientanol E] | no | 31.6 to 100 µM | 31.6 to 100 µM | 79.6 ± 2.77 | 26.9 ± 1.85 | 21.4 ± 0.73 | 10.0 ± 0.00 µM (≈ 4.24 µg/mL) |  |  |  | 
CC(C)=CCC12Oc3cc(O)c(C4=CC5(C)CC(C4)c4ccc(O)cc4O5)c(O)c3C(=O)C1(O)Oc1cc(O)ccc12 (stereo not shown) [Compound 1, sanggenon B] | 31.6 µM | 100 or no | 100 µM |  | 31.2 ± 10.1 |  | 31.6 ± 0.00 µM (≈ 18 µg/mL) |  |  | 32 ± 9.16 | 28.1 ± 7.26
CC1=C[C@H](c2c(O)ccc([C@@H]3CC(=O)c4c(O)cc(O)cc4O3)c2O)[C@@H](C(=O)c2ccc(O)cc2O)[C@H](c2ccc(O)cc2O)C1 [Compound 6, kuwanon L] | 31.6 µM | 100 µM | 100 µM |  | 37.2 ± 10.6 |  | 31.6 µM and 31.6 ± 0.00 µM |  |  | 94.4 ± 4.73 | > 100
CC(C)=CCc1c(O)c(CC=C(C)C)c2[nH]c3c(O)cccc3c(=O)c2c1O [Compound 34, atalphylline] | no |  |  |  | > 100 |  | 17.2 ± 12.5 µM (≈ 6.53 µg/mL) | no | no | 60.4 ± 16.8 | 0.63 ± 0.04
CC(C)=CCc1c(O)cc(CCc2ccccc2)c(CC=C(C)C)c1O [Compound 33, 2,4-bis(3-methyl-2-buten-1-yl)-5-(2-phenylethyl)-1,3-benzenediol] | no |  |  | 41.7 ± 14.6 | 97.7 ± 0.46 | 33.4 ± 21.4 | 10.0 ± 0.00 µM (≈ 3.51 µg/mL) | no | no |  | 
CC(C)=CCc1c(O)c(CC=C(C)C)c2occ(-c3ccc(O)cc3)c(=O)c2c1O [Compound 30, 6,8-diprenylgenistein] | 10 to 100 µM |  | 31.6 to 100 µM | 48.8 ± 16 | 62.5 ± 5.4 | 21.1 ± 0.91 | 10.0 ± 0.00 µM (≈ 4.06 µg/mL) | no |  |  | 
COc1cc(C2CC(=O)c3c(cc(O)c(CC=C(C)C)c3O)O2)ccc1O (stereo not shown) [Compound 22, 2,3-dihydro-5,7-dihydroxy-2-(4-hydroxy-3-methoxyphenyl)-6-(3-methyl-2-buten-1-yl)-4H-1-benzopyran-4-one] | no |  |  | > 100 | > 100 | 63.4 ± 8.31 | 31.6 ± 0.00 µM (≈ 11.7 µg/mL) | no | no |  | 
CC(C)=CCC/C(C)=C/Cc1c(O)cc2c(c1O)C(=O)CC(c1ccc(O)c(O)c1)O2 (stereo not shown) [Compound 25] | 31.6 µM | 100 or no | 100 µM | > 100 | 41.4 ± 6.98 | 55.8 ± 4.41 | 14.3 ± 9.66 µM (≈ 6.07 µg/mL) |  |  |  | 
COc1cc(C2CC(=O)c3c(O)cc(O)cc3O2)ccc1O (racemic) [Compound 9, (±)-homoeriodictyol] | no |  |  |  |  |  |  | no | no |  | 
CC(C)=CCc1c(O)c(CC=C(C)C)c2c(c1O)C(=O)CC(c1cc(O)cc(O)c1)O2 (stereo not shown) [Compound 29, 2-(3,5-dihydroxyphenyl)-2,3-dihydro-5,7-dihydroxy-6,8-bis(3-methyl-2-buten-1-yl)-4H-1-benzopyran-4-one] | 31.6 to 100 µM | 100 µM | 100 µM | 80.6 ± 2.47 | 53.1 ± 17.5 | 34 ± 7.96 | 31.6 ± 0.00 µM (≈ 13.4 µg/mL) |  |  |  | 
CC(C)=CCC/C(C)=C/Cc1c(O)cc(O)c2c1OC(c1ccccc1)CC2=O (racemic) [Compound 24, (R,S)-8-geranyl-5,7-dihydroxyflavanone] | 100 µM |  | 100 µM | > 100 | > 100 | 60.6 ± 3.81 | 3.16 ± 0.00 µM (≈ 1.24 µg/mL) | no |  |  | 
